Data published in a melting point compilation (Tetko et al.).

Compound | melting point
COc1cc(C)c(S(=O)(=O)Cl)c(C)c1C | 58 °C
CCN(CC)C(=O)c1ccccc1 | 30 °C
Cc1onc(-c2c(Cl)cccc2Cl)c1CO | 107 to 109 °C
Nc1cc(CO)ccn1 | 83 °C
CCOC(=O)/C(=N\Nc1cc(Cl)ccc1Cl)C(=O)C(F)(F)F | 146 °C
O=C(O)c1ccc(-c2cnco2)cc1 | 300 to 301 °C
Cc1cc(C)n2nc(N)c(/N=N/c3ccncc3)c2n1 | 228 °C
O=C(O)c1nc(O)n(-c2ccccc2)n1 | 180 °C
CCCCc1ccccc1O | -20 °C
OCc1ccc(-c2ccncc2)cc1 | 173 to 176 °C
Cc1cc(S(=O)(=O)c2ccccc2)ccc1NS(=O)(=O)C(F)(F)F | 143 °C
CCn1c(C)nc2ccccc21 | 51 °C
CC(C)(C)c1cc(CO)cc(C(C)(C)C)c1O | 140 °C
O=C(O)CN(CCO)CC(=O)O | 178 °C
O=C(Nc1ccc([N+](=O)[O-])cc1)c1ccccc1 | 198 °C
Nc1ccc(S)cc1 | 46 °C
Nc1cc2ccccc2cn1 | 154 to 156 °C
S=C(Nc1ccccc1)C(=S)Nc1ccccc1 | 134 to 135 °C
CSc1ccc(O)cc1 | 86 °C
c1ccc2c(c1)OCCOCCOCCO2 | 48 to 50 °C
Nc1ncccc1C(=O)O | 295 to 297 °C
O=Cc1cc(-c2cccs2)on1 | 66 °C
CCCC(=O)c1cc2cc(Br)cc(Br)c2oc1=O | 200 to 202 °C
OCC1Cc2ccccc2N1 (stereo not given) | 49 to 58 °C
O=C(Oc1c(F)c(F)c(F)c(F)c1F)c1ccnc(N2CCSCC2)c1 | 99 to 100 °C

Compound | melting point
O=C(NC(Cc1c[nH]c2ccccc12)C(=O)O)OCc1ccccc1 (stereo not given) | 124 °C
CCOC(=O)C1=C(C)OC(N)=C(c2nc3ccccc3s2)C1c1ccc(Cl)cc1 (stereo not given) | 189 °C
O=C1NC(=O)C(=NNc2ccc(Cl)cc2)C(=O)N1 | 353 °C
CC(=NCc1ccccc1)c1c(O)c2ccccc2n(-c2ccccc2)c1=O | 164 °C
N#Cc1cc(C#N)c(C#N)cc1C#N | 267 to 270 °C
CC(=O)Oc1ccc2cc(OC(C)=O)ccc2c1 | 215 °C
COC(=O)c1ccsc1N | 79 °C
N#Cc1c2ncccc2c(=O)n2c1sc1ccccc12 | 275 °C
CCOC(=O)CON=C(c1cc2ccccc2o1)C1CC(C)(c2ccccc2)C1 (stereo not given) | 155 to 156 °C
NC(=O)OCC(O)c1ccccc1 (stereo not given) | 112 °C
Nc1csc(C(F)(F)F)c1-c1ccccc1 | 65 to 66 °C
CC(=O)c1cccc(C(C)=O)n1 | 80 °C
Cc1nc2ccccn2c1C=O | 117 to 118 °C
CCOC(=O)CNc1cc(NCC(=O)OCC)c([N+](=O)[O-])cc1[N+](=O)[O-] | 198 °C
Cc1cc2c(cc1C)CCCC2 | 10 °C
O=c1c(Cl)c(Cl)cnn1-c1ccccc1 | 163 to 164 °C
COc1nsc(Nc2ccc(Cl)cc2)n1 | 247 to 249 °C
O=C(Nc1nnc(-c2ccc(Cl)cc2)o1)c1cccc(C(F)(F)F)c1 | 215 to 217 °C
O=C(O)CCNC(=O)OCC1c2ccccc2-c2ccccc21 | 144 to 148 °C
CCCCNC(=O)COC(=O)c1ccccc1 | 69.5 °C
O=C(O)CN(CC(=O)O)Cc1cc2c(c(O)c1O)C(=O)c1ccccc1C2=O | 190 °C
Cc1c(C)c(C#N)c2ccccc2c1C#N | 261 to 264 °C
Nc1c(Cl)cc(C(F)(F)F)cc1Br | 31 °C
COC(=O)c1ccc2[nH]ccc2c1 | 125 °C
CC(=O)C(c1ccccc1)c1ccc(C(F)(F)F)cc1[N+](=O)[O-] (stereo not given) | 91 °C

Compound | melting point
COc1ccc(C#N)c(OC)c1OC | 56 °C
NNC(=O)C=Cc1ccc(C=CC(=O)NN)cc1 | 258 to 260 °C
CC(=O)Nc1cc(NC(C)=O)c([N+](=O)[O-])cc1[N+](=O)[O-] | 247 to 248 °C
CN1C(=O)Cc2cc(S(=O)(=O)Cl)ccc21 | 154 to 158 °C
Oc1ncccc1Br | 187 °C
CCCCCCCCCCCCN1c2ccccc2C(C)(C)C12C=Cc1cc([N+](=O)[O-])ccc1O2 (stereo not given) | 109 °C
CCOC(=O)C(C)O (stereo not given) | -26 °C
COc1cc([N+](=O)[O-])ccc1S(=O)(=O)Cl | 97 °C
O=c1occo1 | 19 to 22 °C
Cc1ccc(N=C=O)cc1[N+](=O)[O-] | 51 °C
Fc1cc(Br)ccc1I | 48 °C
O=C(O)/C=C/c1cc2c(cc1CC(=O)O)NC(=O)CC2 | 234 °C
CCN(C#N)CC | -80.6 °C
Cc1c(Cl)c(C)c([N+](=O)[O-])c(O)c1Cl | 227 to 229 °C
Oc1cc(C(F)(F)F)nc2cc(Cl)ccc12 | 280 °C
COC(=O)c1ccc2snnc2c1 | 118 to 120 °C
CC(=Cc1ccccc1)C(=O)O | 80 °C
c1ccc(-c2ccc(-c3nnc(-c4ccc(-c5ccccc5)cc4)o3)cc2)cc1 | 237 °C
CCOC(=O)c1c(C)oc(NC(=O)Nc2ccccc2)c1C(=O)OCC | 110 to 112 °C
CCOC(=O)C(C)(C)C(=O)OCC | -30.4 °C
O=[N+]([O-])c1ccc(N=Nc2ccc(N(CCO)CCO)cc2Cl)cc1 | 190 °C
Cc1cnc(C(=O)O)cn1 | 166 °C
CCOC(=O)c1ncoc1-c1ccccc1 | 32 to 35 °C
Cc1c(I)ccnc1Cl | 107 °C
Cc1ccc(C(C(=O)NC(C)(C)C)N(C)C(=O)CCCc2ccc3ccc4cccc5ccc2c3c45)cc1 (stereo not given) | 141 °C

Compound | melting point
Cc1c(C)c(C)c2c(c1C)CC2 | 139 °C
COc1ccc(-n2nc(C(=O)c3cccs3)sc2=N)cc1 | 164 °C
CC12CCC(C(C(Br)c3ccccc3)OC1=O)C2(C)C (stereo not given) | 141 °C
O=C1/C(=N\Nc2ccc(Br)cc2)C(C(F)(F)F)=NN1c1ccccc1 | 175 °C
ClCCOCOCCCl | -32 °C
C=CC(=O)NC(C)(C)CS(=O)(=O)O | 195 °C
C/C(=N\c1ccccc1)c1c(O)c2ccccc2n(-c2ccccc2)c1=O | 184 to 185 °C
O=C(O)c1cc(Br)c(C(=O)O)cc1Br | 315 to 318 °C
Cc1cc(NS(=O)(=O)c2ccc(N)cc2)sn1 | 192 °C
CCCCCCOCCCCCC | -43 °C
NC(=O)C(=O)NC(c1ccccc1)C1(c2ccccc2)OCCO1 (stereo not given) | 203 °C
O=C(O)c1ccc(Oc2ccccc2)nc1 | 164 °C
Nc1cccc(Cc2cccc(N)c2)c1 | 81.5 °C
O=C(Nc1nc2ccccc2s1)C(F)(F)C(F)(F)C(F)(F)C(F)(F)C(F)(F)C(F)(F)C(F)(F)C(F)(F)F | 168 to 170 °C
O=c1ccc2ccc(O)c(O)c2o1 | 262 °C
Cc1cc(=O)n(-c2ccccc2)[nH]1 | 128 °C
COc1ccc(C=C2N=C(c3ccccc3)OC2=O)cc1OC | 132 to 133 °C
COc1cc(OC(C)=O)c2c(=O)c(O[C@@H]3O[C@H](COC(C)=O)[C@H](OC(C)=O)[C@H](OC(C)=O)[C@@H]3O[C@@H]3O[C@H](C)[C@H](OC(C)=O)[C@H](OC(C)=O)[C@@H]3OC(C)=O)c(-c3ccc(OC(C)=O)c(OC(C)=O)c3)oc2c1 | 117 to 120 °C
O=c1cc(CN2CCOCC2)c2cc(O)c(O)cc2o1 | 232 °C
CC(=O)C(F)(F)F | -78 °C
FC(F)(F)c1cccc(CSc2nnc(S)s2)c1 | 140 to 142 °C
CCOC(=O)C(C#N)=C(SCc1ccccc1)SCc1ccccc1 | 82 °C
O=C1NC(=S)NC(=O)C1=NNc1ccc(Cl)cc1 | 300 °C
COc1ccc(C(=O)c2cccc(OC)c2OC)cc1OC | 118 to 120 °C
COc1cccc(Nc2ccccc2)c1 | 73 °C

Compound | melting point
CC12CCC(C(COC=O)C1=O)C2(C)C (stereo not given) | 74 °C
N[C@@H](CO)c1ccccc1 | 75 to 79 °C
O=C(O)CC(C(=O)O)C(CC(=O)O)C(=O)O (stereo not given) | 195 to 197 °C
Fc1c(F)c(F)c(P(CCP(c2c(F)c(F)c(F)c(F)c2F)c2c(F)c(F)c(F)c(F)c2F)c2c(F)c(F)c(F)c(F)c2F)c(F)c1F | 190 to 195 °C
Cc1cccnc1NC(=O)C(C(F)(F)F)C(F)(F)F | 181 °C
CN(C)Cc1ncccc1O | 55 to 60 °C
C=CC(=O)Nc1ccc2c(c1)OCCOCCOCCOCCOCCO2 | 108 to 112 °C
CSc1ccccc1C(=O)N(NC(=O)c1ccccc1)C(C)(C)C | 196 °C
Oc1ccc2c(c1)C13CCCCC1C(C2)N(CC1CC1)CC3 (stereo not given) | 188 °C
CC(=O)NC(N)=O | 218 °C
Brc1ccccc1-c1nnn[nH]1 | 182 to 184 °C
COc1cc(C)c(C(O)C#N)cc1OC (stereo not given) | 80 °C
O=C=NCCCCCCN=C=O | -67 °C
CC(=O)Nc1cccc(N=[N+]([O-])c2cccc(NC(C)=O)c2)c1 | 254 °C
C=CCc1ccccc1O | -6 °C
Cc1ccc(N(C)C(=S)Cl)cc1 | 56 to 59 °C
COc1c(Br)ccc2c1C(=NNc1ccc([N+](=O)[O-])cc1[N+](=O)[O-])C2 | 309 to 310 °C
CC(=O)Nc1ccc(N=Nc2cc(C(C)C)c(N=Nc3ccc(NC(C)=O)cc3)cc2C)cc1 | 284 °C
COc1cccc(N(C)C(=S)Oc2cccc(C(C)(C)C)c2)n1 | 86 °C
CC1C(=O)NC(=O)C1(C)C (stereo not given) | 117 to 122 °C
CCCCCCC(C)(C)S | -43.1 °C
O=C(O)CSCCOc1ccccc1 | 49 to 52 °C
CCCCCCCCCCC(C)Br (stereo not given) | -96 °C
CC(CO)NC(=O)C1C=C2c3cccc4[nH]cc(c34)CC2N(C)C1 (stereo not given) | 162 °C
Oc1c(F)ccc(F)c1F | 33.5 °C
